This is an account of results in US8871753B2, “Macrocyclic compounds and their use as kinase inhibitors” (Incyte Corporation, priority 2008, dated 2014).

Where a name gives a salt, the structure may show the parent alone. Read-outs that look alike come from different tables or passages of the source.

Format in all cases: biochemical
In test [1] the target is T1, Recombinant Human Anaplastic Lymphoma Kinase (Homo sapiens, UniProt Q9UM73).
T1 construct: purchased Invitrogen, Carlsbad, Calif
The experiment in a line: ALK HTRF kinase assay. Put shortly: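 Readout was HTRF between a Eu-W1024 anti-phosphotyrosine antibody and streptavidin-APC bound to biotinylated peptide phosphorylated by recombinant human ALK. IC50 values came from a four-parameter logistic fit.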
In general terms: In TR-FRET formats the signal depends on donor and acceptor labels being close together.

The target in test [2] is T2, human JAK2 (a.a. 828-1132) (Homo sapiens, UniProt O60674).
T2 construct: JAK2 (a.a. 828-1132); His tag (N); made in house; host or cells: insect cells (baculovirus)
T2 sequence (O60674 828-1132): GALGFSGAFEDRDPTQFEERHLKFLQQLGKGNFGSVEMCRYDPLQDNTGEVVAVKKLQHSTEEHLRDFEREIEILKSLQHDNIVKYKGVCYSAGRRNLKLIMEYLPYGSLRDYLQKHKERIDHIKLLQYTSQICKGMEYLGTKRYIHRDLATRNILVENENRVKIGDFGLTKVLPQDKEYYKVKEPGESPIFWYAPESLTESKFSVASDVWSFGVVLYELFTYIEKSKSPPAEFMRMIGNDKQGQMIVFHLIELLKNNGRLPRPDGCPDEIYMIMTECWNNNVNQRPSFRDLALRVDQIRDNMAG
The experiment in a line: In vitro JAK kinase assay (HTRF, phosphorylation of a biotinylated peptide), JAK2. The procedure, abridged: (§1)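 Kinase reactions ran at room temperature for 1 h with ATP matched per isoform (JAK1 90 μM, JAK2 30 μM, JAK3 3 μM). After an EDTA stop, the phosphorylated biotin-peptide was read by HTRF using Eu-Py20 and SA-APC after 40 min binding.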

The target in test [3] is T3, human JAK1 (a.a. 837-1142) (Homo sapiens, UniProt P23458).
T3 construct: human JAK1 (a.a. 837-1142); His tag (N); made in house; host or cells: insect cells (baculovirus)
T3 sequence (P23458 849-1154): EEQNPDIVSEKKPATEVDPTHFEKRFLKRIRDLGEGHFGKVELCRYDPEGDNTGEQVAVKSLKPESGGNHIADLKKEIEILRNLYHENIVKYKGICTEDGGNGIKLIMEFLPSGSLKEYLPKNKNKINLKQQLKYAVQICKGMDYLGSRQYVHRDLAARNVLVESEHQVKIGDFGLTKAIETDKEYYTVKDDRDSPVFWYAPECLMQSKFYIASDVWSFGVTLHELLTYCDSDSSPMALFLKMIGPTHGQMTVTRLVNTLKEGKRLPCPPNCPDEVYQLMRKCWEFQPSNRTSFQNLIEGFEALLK
The experiment in a line: In vitro JAK kinase assay (HTRF, phosphorylation of a biotinylated peptide), JAK1. The conditions noted are these: read-out: JAK1 IC50. Put shortly:
as §1

Test [4] addresses T4, human JAK3 (a.a. 781-1124) (Homo sapiens, UniProt P52333).
T4 construct: JAK3 (a.a. 781-1124); His tag (N); made in house; host or cells: insect cells (baculovirus)
Put plainly: In vitro JAK kinase assay (HTRF, phosphorylation of a biotinylated peptide), JAK3. The procedure, abridged:
as §1

A further test addresses TYK2 (Homo sapiens, UniProt P29597). Put plainly: TYK2 kinase inhibition (Table A1).
The mark [5] stands for this setting: Table B1, cells without percent sign.
The mark [6] stands for this setting: compound at a concentration of 500 nM or 1 mM (not specified), cells shown as percentage.
The mark [7] stands for this setting: compound at 500 nM or 1 mM, 90 μM ATP.
Setting [8] is: method AA1 (30 μM ATP) or AA2 (1000 μM ATP), not stated per value.
Where [9] appears, read: method AA1 (90 μM ATP) or AA2 (1000 μM ATP), not stated per value.
Setting [10] is: method AA1 (3 μM ATP) or AA2 (1000 μM ATP), not stated per value.

T4 sequence (P52333 781-1124): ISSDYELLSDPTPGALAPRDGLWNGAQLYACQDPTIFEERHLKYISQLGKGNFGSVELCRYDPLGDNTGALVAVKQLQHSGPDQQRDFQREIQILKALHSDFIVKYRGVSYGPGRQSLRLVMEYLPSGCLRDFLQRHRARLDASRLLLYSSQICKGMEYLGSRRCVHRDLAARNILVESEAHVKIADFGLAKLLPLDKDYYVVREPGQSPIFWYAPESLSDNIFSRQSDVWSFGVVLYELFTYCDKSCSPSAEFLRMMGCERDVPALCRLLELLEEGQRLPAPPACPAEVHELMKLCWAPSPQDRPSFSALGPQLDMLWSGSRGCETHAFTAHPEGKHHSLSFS
Chain of TYK2 (P29597 whole entry): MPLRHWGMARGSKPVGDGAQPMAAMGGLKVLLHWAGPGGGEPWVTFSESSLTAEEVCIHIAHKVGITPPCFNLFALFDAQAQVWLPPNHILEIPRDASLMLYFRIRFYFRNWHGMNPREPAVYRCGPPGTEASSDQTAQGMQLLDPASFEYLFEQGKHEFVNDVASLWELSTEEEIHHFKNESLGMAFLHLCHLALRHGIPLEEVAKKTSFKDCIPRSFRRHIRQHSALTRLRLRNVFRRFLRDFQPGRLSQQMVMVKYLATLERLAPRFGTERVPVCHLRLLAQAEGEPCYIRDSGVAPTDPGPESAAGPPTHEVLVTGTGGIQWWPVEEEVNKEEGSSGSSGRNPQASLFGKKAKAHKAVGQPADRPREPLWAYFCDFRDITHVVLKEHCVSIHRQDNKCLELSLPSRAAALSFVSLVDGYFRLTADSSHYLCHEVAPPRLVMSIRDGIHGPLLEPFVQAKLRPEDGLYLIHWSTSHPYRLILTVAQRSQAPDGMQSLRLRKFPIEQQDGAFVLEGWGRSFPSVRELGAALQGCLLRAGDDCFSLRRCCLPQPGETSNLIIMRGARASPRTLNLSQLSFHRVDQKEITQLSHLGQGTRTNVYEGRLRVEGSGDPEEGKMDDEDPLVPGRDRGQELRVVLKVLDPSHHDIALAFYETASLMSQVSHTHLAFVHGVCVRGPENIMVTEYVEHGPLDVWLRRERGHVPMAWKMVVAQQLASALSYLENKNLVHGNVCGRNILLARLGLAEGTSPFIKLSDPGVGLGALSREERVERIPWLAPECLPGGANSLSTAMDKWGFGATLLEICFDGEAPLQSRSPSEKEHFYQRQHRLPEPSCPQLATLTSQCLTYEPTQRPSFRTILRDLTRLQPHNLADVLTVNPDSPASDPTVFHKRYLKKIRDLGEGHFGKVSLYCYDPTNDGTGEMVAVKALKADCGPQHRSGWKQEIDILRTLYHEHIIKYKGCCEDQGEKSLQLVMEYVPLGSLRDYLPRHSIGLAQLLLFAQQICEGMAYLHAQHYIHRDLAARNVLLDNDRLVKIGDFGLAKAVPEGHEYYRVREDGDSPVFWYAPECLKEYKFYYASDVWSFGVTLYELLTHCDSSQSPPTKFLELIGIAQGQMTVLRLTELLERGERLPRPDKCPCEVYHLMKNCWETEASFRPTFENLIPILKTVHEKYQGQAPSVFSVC
T1 sequence (Q9UM73 19-1620): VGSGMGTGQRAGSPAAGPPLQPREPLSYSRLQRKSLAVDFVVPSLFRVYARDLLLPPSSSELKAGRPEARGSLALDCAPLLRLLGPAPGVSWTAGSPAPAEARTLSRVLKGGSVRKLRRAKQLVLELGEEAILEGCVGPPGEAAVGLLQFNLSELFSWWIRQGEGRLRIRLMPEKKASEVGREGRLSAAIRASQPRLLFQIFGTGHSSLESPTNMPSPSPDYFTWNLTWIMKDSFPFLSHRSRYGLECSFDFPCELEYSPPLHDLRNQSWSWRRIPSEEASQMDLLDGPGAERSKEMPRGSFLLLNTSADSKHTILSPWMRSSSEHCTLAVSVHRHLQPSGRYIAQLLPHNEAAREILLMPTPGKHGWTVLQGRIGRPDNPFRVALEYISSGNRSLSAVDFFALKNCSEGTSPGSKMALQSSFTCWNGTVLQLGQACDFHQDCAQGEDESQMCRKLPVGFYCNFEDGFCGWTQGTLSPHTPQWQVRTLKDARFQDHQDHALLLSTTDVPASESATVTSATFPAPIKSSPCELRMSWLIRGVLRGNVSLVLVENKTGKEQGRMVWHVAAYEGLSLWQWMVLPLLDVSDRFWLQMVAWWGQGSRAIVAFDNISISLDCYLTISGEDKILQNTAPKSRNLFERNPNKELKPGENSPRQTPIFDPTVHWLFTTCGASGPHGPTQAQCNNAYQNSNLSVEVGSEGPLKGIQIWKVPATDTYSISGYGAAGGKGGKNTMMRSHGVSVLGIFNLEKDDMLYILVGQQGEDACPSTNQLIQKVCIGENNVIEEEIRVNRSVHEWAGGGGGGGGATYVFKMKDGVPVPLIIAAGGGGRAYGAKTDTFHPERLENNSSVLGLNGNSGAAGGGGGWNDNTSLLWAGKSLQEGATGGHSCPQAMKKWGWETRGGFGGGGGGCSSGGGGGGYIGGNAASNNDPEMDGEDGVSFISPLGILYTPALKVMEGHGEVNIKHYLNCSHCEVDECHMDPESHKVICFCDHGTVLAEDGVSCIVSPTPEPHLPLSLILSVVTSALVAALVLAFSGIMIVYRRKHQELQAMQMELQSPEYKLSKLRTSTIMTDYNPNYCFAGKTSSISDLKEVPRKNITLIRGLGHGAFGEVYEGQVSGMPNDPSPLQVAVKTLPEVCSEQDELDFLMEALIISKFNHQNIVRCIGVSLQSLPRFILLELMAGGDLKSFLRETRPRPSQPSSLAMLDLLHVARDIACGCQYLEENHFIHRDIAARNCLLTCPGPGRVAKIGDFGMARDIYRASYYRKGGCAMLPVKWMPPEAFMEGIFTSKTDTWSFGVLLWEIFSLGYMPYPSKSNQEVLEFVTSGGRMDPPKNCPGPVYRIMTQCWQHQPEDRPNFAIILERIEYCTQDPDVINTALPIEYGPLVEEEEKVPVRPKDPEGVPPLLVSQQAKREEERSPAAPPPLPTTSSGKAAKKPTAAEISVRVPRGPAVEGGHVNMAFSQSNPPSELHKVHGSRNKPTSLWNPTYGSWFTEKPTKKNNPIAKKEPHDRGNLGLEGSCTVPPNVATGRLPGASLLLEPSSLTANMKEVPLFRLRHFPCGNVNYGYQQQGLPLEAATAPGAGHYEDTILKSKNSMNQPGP

The term IC50 denotes the concentration that gives 50% inhibition. As to `Clc1ccc(CN2CCN(Cc3cc4cc(c3)Nc3nc(ncc3Cl)Nc3cccc(c3)CC4)CC2)cc1` [Example B199, 6-Chloro-11-{[4-(4-chlorobenzyl)piperazin-1-yl]methyl}-2,4,8,22-tetraazatetracyclo[14.3.1.1(3,7).1(9,13)]docosa-1(20),3(22),4,6,9(21),10,12,16,18-nonaene tris(trifluoroacetate)], the concentration for half-maximal inhibition (IC50) was greater than 1000 nM in test [1] (setting [5]); 2.7 nM in test [2] (Table B1); 4.9 nM in test [3] (Table B1); 64 nM in test [4] (Table B1); 154 nM on TYK2 (Table B1).
`O=C(c1cc2cc(c1)OCCSc1cccc(c1)Nc1nc(ncc1Cl)N2)N1CCN(c2ccccc2)CC1` [Example D53, 6-Chloro-20-[(4-phenylpiperazin-1-yl)carbonyl]-17-oxa-14-thia-2,4,8,24-tetraazatetracyclo[16.3.1.1(3,7).1(9,13)]tetracosa-1(22),3(24),4,6,9(23),10,12,18,20-nonaene bis(trifluoroacetate)]: the IC50 in test [1] (Table D1, 90 μM ATP) came to 1150 nM; in test [2] (Table D1), 34 nM; in test [3] (Table D1), 27 nM; in test [4] (Table D1) it was 273 nM; at TYK2 (Table D1), 28 nM.
For `O=C(Nc1ccc2cc1CCc1cncc(c1)Nc1ncc(Cl)c(n1)N2)N1CCN(c2cnccn2)CC1` [Example B294, N-[6-Chloro-2,4,8,18,22-pentaazatetracyclo[14.3.1.1(3,7).1(9,13)]docosa-1(20),3(22),4,6,9(21),10,12,16,18-nonaen-12-yl]-4-pyrazin-2-ylpiperazine-1-carboxamide tetrakis(trifluoroacetate)], the “ALK % of inhibition at a concentration of 500 nM or 1 mM” value (“ALK % of inhibition” below) in test [1] (setting [6]) was determined as 54%. Moreover, the IC50 was 150 nM in test [2] (Table B1), 19 nM in test [3] (Table B1), greater than 200 nM in test [4] (Table B1) and 85 nM against TYK2 (Table B1).
For the compound `O=C(Nc1cc2cc(c1)OCCSc1cccc(c1)Nc1nc(ncc1Cl)N2)c1cccs1` [Example D63, N-[6-Chloro-17-oxa-14-thia-2,4,8,24-tetraazatetracyclo[16.3.1.1(3,7).1(9,13)]tetracosa-1(22),3(24),4,6,9(23),10,12,18,20-nonaen-20-yl]thiophene-2-carboxamide trifluoroacetate], the IC50 in test [1] (Table D1, 90 μM ATP) was determined as 610 nM; in test [2] (Table D1), 1.5 nM; in test [3] (Table D1) it was 6.8 nM; in test [4] (Table D1) it was 19 nM; on TYK2 (Table D1), 5.4 nM.
On to `O=C(Nc1ccc2cc1CCc1cncc(c1)Nc1ncc(Cl)c(n1)N2)N1CCN(c2ccccc2Cl)CC1` [Example B305, N-[6-Chloro-2,4,8,18,22-pentaazatetracyclo[14.3.1.1(3,7).1(9,13)]docosa-1(20),3(22),4,6,9(21),10,12,16,18-nonaen-12-yl]-4-(2-chlorophenyl)piperazine-1-carboxamide bis(trifluoroacetate)], for which the “ALK % of inhibition” value in test [1] (percentage inhibition of the example compound at a concentration of 500 nM or 1 mM (not specified which)) amounted to 79%. In addition, the 50% inhibitory concentration (IC50) in test [2] (Table B1) was 148 nM; in test [3] (Table B1) it was 15 nM; in test [4] (Table B1), greater than 400 nM; at TYK2 (Table B1), 38 nM.
Take `O=S1(=O)NCc2cccc(c2)Nc2nc(ncc2Cl)Nc2cccc1c2` [Example C3, 6-Chloro-16-thia-2,4,8,15,23-pentaazatetracyclo[15.3.1.1(3,7).1(9,13)]tricosa-1(21),3(23),4,6,9(22),10,12,17,19-nonaene 16,16-dioxide]: the half-inhibitory concentration (IC50) in test [1] worked out at 6600 nM; in test [2] it was 37 nM; in test [3], 81 nM; in test [4], 115 nM; at TYK2, 91 nM.
For `N#Cc1ccc(N2CCC(CC(=O)Nc3ccc4cc3CCc3cncc(c3)Nc3ncc(Cl)c(n3)N4)CC2)nc1` [Example A179, N-[6-Chloro-2,4,8,18,22-pentaazatetracyclo[14.3.1.1(3,7).1(9,13)]docosa-1(20),3(22),4,6,9(21),10,12,16,18-nonaen-12-yl]-2-[1-(5-cyanopyridin-2-yl)piperidin-4-yl]acetamide tris(trifluoroacetate)], the “ALK % of inhibition” value in test [1] (setting [7]) stood at 43%. Further, the IC50 in test [2] (setting [8]) was 83 nM; in test [3] (setting [9]), 18 nM; in test [4] (setting [10]), greater than 200 nM; at TYK2, greater than 200 nM.
On to `Cn1cccc1C(=O)Nc1ccc2cc1CCc1cccc(c1)Nc1ncc(Cl)c(n1)N2` [Example B50, N-[6-Chloro-2,4,8,22-tetraazatetracyclo[14.3.1.1(3,7).1(9,13)]docosa-1(20), 3(22),4,6,9(21),10,12,16,18-nonaen-12-yl]-1-methyl-1H-pyrrole-2-carboxamide trifluoroacetate], for which the IC50 in test [1] (setting [5]) is 230 nM; in test [2] (Table B1), 0.28 nM; in test [3] (Table B1) it was 0.44 nM; in test [4] (Table B1) it was 2.5 nM; against TYK2 (Table B1), 2.3 nM.
As for `O=S(=O)(Cc1ccccc1)Nc1ccc2cc1CCc1cccc(c1)Nc1ncc(Cl)c(n1)N2` [Example B147, N-[6-Chloro-2,4,8,22-tetraazatetracyclo[14.3.1.1(3,7).1(9,13)]docosa-1(20), 3(22),4,6,9(21),10,12,16,18-nonaen-12-yl]-1-phenylmethanesulfonamide trifluoroacetate], the IC50 in test [1] (setting [5]) worked out at 1800 nM; in test [2] (Table B1), 1.5 nM; in test [3] (Table B1) it was 2.5 nM; in test [4] (Table B1), 37 nM; on TYK2 (Table B1), 6.6 nM.
Take `O=C(Nc1ccc2cc1CCc1cccc(c1)Nc1ncc(Cl)c(n1)N2)c1ccno1` [Example B53, N-[6-Chloro-2,4,8,22-tetraazatetracyclo[14.3.1.1(3,7).1(9,13)]docosa-1(20), 3(22),4,6,9(21),10,12,16,18-nonaen-12-yl]isoxazole-5-carboxamide trifluoroacetate]: the concentration for half-maximal inhibition (IC50) in test [1] (setting [5]) is 720 nM; in test [2] (Table B1), 2.3 nM; in test [3] (Table B1), 2.8 nM; in test [4] (Table B1), 17 nM; at TYK2 (Table B1) it was 8 nM.
In the case of `Cc1cc(C(=O)N2CCN(CC(=O)Nc3ccc4cc3CCc3cccc(c3)Nc3ncc(Cl)c(n3)N4)CC2)no1` [Example A123, N-[6-Chloro-2,4,8,22-tetraazatetracyclo[14.3.1.1(3,7).1(9,13)]docosa-1(20),3(22),4,6,9(21),10,12,16,18-nonaen-12-yl]-2-{4-[(5-methylisoxazol-3-yl)carbonyl]piperazin-1-yl}acetamide bis(trifluoroacetate)], the “ALK % of inhibition” value in test [1] (setting [7]) was 26%. Also, the half-inhibitory concentration (IC50) was determined as 9.6 nM in test [2] (setting [8]), 7.2 nM in test [3] (setting [9]), 68 nM in test [4] (setting [10]) and 8.3 nM against TYK2.
For `Clc1cnc2nc1Nc1cccc(c1)OCCSc1cccc(c1)N2` [Example D15, 6-Chloro-14-oxa-17-thia-2,4,8,24-tetraazatetracyclo[16.3.1.1(3,7).1(9,13)]tetracosa-1(22),3(24),4,6,9(23),10,12,18,20-nonaene trifluoroacetate], the IC50 is greater than 10000 nM in test [1] (Table D1, 90 μM ATP); 61 nM in test [2] (Table D1); 93 nM in test [3] (Table D1); 135 nM in test [4] (Table D1); 88 nM against TYK2 (Table D1).
On to `O=C(Nc1ccc2cc1CCc1cccc(c1)Nc1ncc(Cl)c(n1)N2)C1CCN(S(=O)(=O)c2ccccc2)CC1` [Example A42, N-[6-Chloro-2,4,8,22-tetraazatetracyclo[14.3.1.1(3,7).1(9,13)]docosa-1(20), 3(22),4,6,9(21),10,12,16,18-nonaen-12-yl]-1-(phenylsulfonyl)piperidine-4-carboxamide trifluoroacetate], for which, in test [1] (setting [7]), the “ALK % of inhibition” value came to 34%. Besides, the IC50 in test [2] (setting [8]) worked out at 24 nM; in test [3] (setting [9]), 21 nM; in test [4] (setting [10]), 58 nM; at TYK2, 183 nM.
For the compound `CCOc1ccccc1NC(=O)Nc1ccc2cc1CCc1cccc(c1)Nc1ncc(Cl)c(n1)N2` [Example B106, N-[6-Chloro-2,4,8,22-tetraazatetracyclo[14.3.1.1(3,7).1(9,13)]docosa-1(20), 3(22),4,6,9(21),10,12,16,18-nonaen-12-yl]-N′-(2-ethoxyphenyl)urea trifluoroacetate], the “ALK % of inhibition” value in test [1] (setting [6]) came to 5.7%. The concentration for half-maximal inhibition (IC50) in test [2] (Table B1) is 9.6 nM; in test [3] (Table B1), 4.3 nM; in test [4] (Table B1), 90 nM; at TYK2 (Table B1), 18 nM.
As for `O=C(CC1CCN(C(=O)Nc2cccc(F)c2)CC1)Nc1ccc2cc1CCc1cncc(c1)Nc1ncc(Cl)c(n1)N2` [Example A147, 4-(2-{[6-Chloro-2,4,8,18,22-pentaazatetracyclo[14.3.1.1(3,7).1(9,13)]docosa-1(20),3(22),4,6,9(21),10,12,16,18-nonaen-12-yl]amino}-2-oxoethyl)-N-(3-fluorophenyl)piperidine-1-carboxamide bis(trifluoroacetate)], in test [1] (setting [7]), the “ALK % of inhibition” value came out at 46%. In addition, the 50% inhibitory concentration (IC50) in test [2] (setting [8]) was 1.9 nM; in test [3] (setting [9]) it was 0.3 nM; in test [4] (setting [10]), greater than 100 nM; against TYK2, 7.4 nM.
